Experimental data from ChEMBL document CHEMBL1132713, “Emerging molecular approaches to pain therapy” (J Med Chem, 1999).

Assays:
[1] = target: Delta-type opioid receptor (Homo sapiens, UniProt P41143); assay: Opioid receptor delta 1 agonist activity was determined; type: functional
Proteasome = assay: Inhibitory activity against 26S proteasome degradation of IkB; type: subcellular

Delta-type opioid receptor, sequence (P41143 whole entry): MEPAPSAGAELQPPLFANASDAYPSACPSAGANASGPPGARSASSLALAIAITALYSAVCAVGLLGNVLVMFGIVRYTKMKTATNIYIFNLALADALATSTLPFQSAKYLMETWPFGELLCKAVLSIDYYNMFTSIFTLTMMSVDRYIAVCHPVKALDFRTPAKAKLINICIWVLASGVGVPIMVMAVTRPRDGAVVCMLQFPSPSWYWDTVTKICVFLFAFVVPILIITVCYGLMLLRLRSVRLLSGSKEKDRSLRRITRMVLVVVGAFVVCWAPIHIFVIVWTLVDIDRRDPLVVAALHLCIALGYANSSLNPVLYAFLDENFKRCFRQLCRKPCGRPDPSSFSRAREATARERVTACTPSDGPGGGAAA

SMILES	Ki [1]	Ki (Proteasome)
COc1ccc2c3c1OC1C4NC(C(=O)OCC(C)C)=C(C)C4CC4C(C2)N(C)CCC341 (configuration not stated)	4.8 nM	–
CC(C)C[C@H](NC(=O)[C@@H](Cc1ccccc1)NC(=O)c1ccccc1)B(O)O	–	0.6 nM
